What was measured:
iNOS = test: Western blot of iNOS protein expression in LPS-stimulated RAW264.7 macrophages; format: cell-based; details: pre-treated 3 h, LPS 24 h
Excerpt: (§1) Therefore, we further tested whether inhibitory effects of 8 against NO and PGE2 productions are correlated with the protein expression of pro-inflammatory enzymes (i.e., iNOS and COX-2, respectively), which are known to catalyze the production of NO and PGEs in LPS-stimulated cells. […] Upon the stimulation by LPS, macrophages can also trigger the production of pro-inflammatory cytokines such as TNF-α, and ILs. The overproduction of these cytokines contributes to the pathogenesis of inflammatory diseases. Thus, we further evaluated the effects of 8 on the mRNA expression of pro-inflammatory cytokines in the LPS-induced cells. The cells were pre-treated with indicated concentration for 3 h, followed by LPS stimulation (1 μg/mL) for 6 h. The mRNA expression of pro-inflammatory cytokines was determined by RT-qPCR.
(§2) Figure 2 Effects of 8 on protein expression levels of iNOS and COX-2 (a), and mRNA expression levels of IL-1β (Il1b) (b), IL-6 (Il6) (c), and TNF-α (Tnf) (d) in RAW264.7 macrophages. The cells were pre-treated for 3 h with the indicated concentrations of 8 and stimulated for 24 h (a), and 6 h (b–d) with LPS (1 μg/mL). The measurement of western blot analysis and RNA quantification for Il1b, Il6, and Tnf expression were performed as described in the Materials and Methods. […]
(§3) The proteins of iNOS, COX-2, NF-κB, and MAPKs were measured by Western blot analysis. […]

COX-2 = test: Western blot of COX-2 protein expression in LPS-stimulated RAW264.7 macrophages; format: cell-based; details: pre-treated 3 h, LPS 24 h
Excerpt: as §1, §2, §3

TNF-α (Tnf) = test: RT-qPCR of TNF-α mRNA in LPS-stimulated RAW264.7 macrophages; format: cell-based; details: pre-treated 3 h, LPS (1 μg/mL) 6 h
[1] = test system: c-Jun N-terminal kinase (JNK); test: Western blot of JNK phosphorylation in LPS-treated RAW264.7 macrophages; format: cell-based; details: pre-treated 3 h, LPS (1 μg/mL) 30 min
Procedure: (§4) Figure 4 Effects of 8 on p38 (a), JNK (b), and ERK (c) phosphorylation in RAW264.7 macrophages. Cells were pre-treated with the indicated concentrations of 8 for 3 h and stimulated for 30 min with LPS (1 μg/mL). Cell extracts were subjected to Western blotting with antibodies specific for phosphorylated-p38 (p-p38), phosphorylated JNK (p-JNK), or phosphorylated ERK1/2 (p-ERK). Membranes were stripped and re-probed to measure the total abundance of each MAPK as a control measurement. Representative blots from three independent experiments are shown.
(§5) The proteins of iNOS, COX-2, NF-κB, and MAPKs were measured by Western blot analysis. The details of procedures for Western blot analysis were described previously.

p38 = test: Western blot of p38 phosphorylation in LPS-treated RAW264.7 macrophages; format: cell-based; details: pre-treated 3 h, LPS (1 μg/mL) 30 min
Procedure: as §4, §5

NF-κB (p50 and p65) = test: Western blot of nuclear NF-κB (p50 and p65) in LPS-treated RAW264.7 macrophages; format: cell-based; details: pre-treated 3 h, LPS (1 μg/mL) 1 h
Procedure: (§6) Figure 3 Effects of 8 on NF-κB activation (nuclear-p50 and p65) (a), IκBα phosphorylation and degradation (b), and the DNA binding activity of NF-κB (c) in LPS-treated RAW264.7 macrophages. Cells were pre-treated with the indicated concentrations of 8 for 3 h and stimulated with LPS (1 μg/mL) for 1 h. Western blot analysis (IκBα and p-IκBα in the cytoplasm and NF-κB in the nucleus) was performed as described in the Materials and Methods. Representative blots from three independent experiments are shown. A commercially-available NF-κB ELISA kit (Active Motif) was used to test the nuclear extracts and determine the degree of NF-κB binding. The data shown represent the mean values of three independent experiments. * p < 0.05 compared with the group treated with LPS.
as §5
(§7) The proteins of nuclear NF-κB (p50 and p65) and cytosolic IκBα (p-IκBα and IκBα) were obtained by using cytosolic and nuclear fractions. The details of this procedure have been described previously.

IL-1β (Il1b) = test: RT-qPCR of IL-1β mRNA in LPS-stimulated RAW264.7 macrophages; format: cell-based; details: pre-treated 3 h, LPS (1 μg/mL) 6 h
p97 = test system: p97; design: method as in PMID 27223265; details: interfering with its ATPase activity; cited from earlier work
IκB-α = test: Western blot of cytosolic IκBα phosphorylation and degradation in LPS-treated RAW264.7 macrophages; format: cell-based; details: pre-treated 3 h, LPS (1 μg/mL) 1 h
Procedure: as §6, §5, §7

[2] = test system: extracellular signal-regulated kinase (ERK); test: Western blot of ERK phosphorylation in LPS-treated RAW264.7 macrophages; format: cell-based; details: pre-treated 3 h, LPS (1 μg/mL) 30 min
Procedure: as §4, §5

In the case of C[C@H]1CCC/C=C/C(=O)c2c(O)cc(O)cc2CC(=O)O1 [Compound 8, (10E,15S)-10,11-dehydrocurvularin], the iNOS protein expression (iNOS) is reported as “attenuation of the excessive protein expression of iNOS and COX-2 in a dose-dependent manner”, the COX-2 protein expression (COX-2) is reported as “attenuation of the excessive protein expression of iNOS and COX-2 in a dose-dependent manner” and the “mRNA expression of TNF-α” value (TNF-α (Tnf)) is reported as “markedly suppressed the mRNA expression of IL-1β, IL-6, and TNF-α in a dose-dependent manner”. For the same compound, the “LPS-induced phosphorylation of JNK” value [1] was “did not suppress these phosphorylations”, the “LPS-induced phosphorylation of p38” value (p38) was “did not suppress these phosphorylations” and the “nuclear translocation of p50 and p65” value (NF-κB (p50 and p65)) was “clearly suppressed the nuclear translocation of p50 and p65 in a dose-dependent manner”. The “mRNA expression of IL-1β” value (IL-1β (Il1b)) was “markedly suppressed the mRNA expression of IL-1β, IL-6, and TNF-α in a dose-dependent manner”, the “inhibition of p97” value (p97) was “covalent inhibitor of p97” and the “degradation of IκB-α” value (IκB-α) was “blocked the degradation of IκB-α in a concentration-dependent manner”. The “phosphorylation of IκB-α” value (IκB-α) was “attenuated this phosphorylation of IκB-α” and the “LPS-induced phosphorylation of ERK” value [2] was “did not suppress these phosphorylations”.

— publication PMC5618421, “Anti-Inflammatory Effects of Curvularin-Type Metabolites from a Marine-Derived Fungal Strain Penicillium sp. SF-5859 in Lipopolysaccharide-Induced RAW264.7 Macrophages” (Marine Drugs, 2017)
